Results taken from ChEMBL document CHEMBL1201862, “PubChem BioAssay data set” (2004).
Active and inactive are the calls of the source.

Legend:
[1] = A Cell Based Secondary Assay to Explore Cytotoxicity in THP-1 Cells of Compounds that Modulate Mycobacterium tuberculosis in Media Containing Glycerol versus Media without Glycerol (2).; assay type: functional
[2] = target: Beta-galactosidase (Escherichia coli, UniProt Q8VNN2); assay: Dose response counterscreen for EBI2 assay utilizing the enzyme, b-galactosidase.; assay type: functional
Sequence of Beta-galactosidase (Q8VNN2 whole entry): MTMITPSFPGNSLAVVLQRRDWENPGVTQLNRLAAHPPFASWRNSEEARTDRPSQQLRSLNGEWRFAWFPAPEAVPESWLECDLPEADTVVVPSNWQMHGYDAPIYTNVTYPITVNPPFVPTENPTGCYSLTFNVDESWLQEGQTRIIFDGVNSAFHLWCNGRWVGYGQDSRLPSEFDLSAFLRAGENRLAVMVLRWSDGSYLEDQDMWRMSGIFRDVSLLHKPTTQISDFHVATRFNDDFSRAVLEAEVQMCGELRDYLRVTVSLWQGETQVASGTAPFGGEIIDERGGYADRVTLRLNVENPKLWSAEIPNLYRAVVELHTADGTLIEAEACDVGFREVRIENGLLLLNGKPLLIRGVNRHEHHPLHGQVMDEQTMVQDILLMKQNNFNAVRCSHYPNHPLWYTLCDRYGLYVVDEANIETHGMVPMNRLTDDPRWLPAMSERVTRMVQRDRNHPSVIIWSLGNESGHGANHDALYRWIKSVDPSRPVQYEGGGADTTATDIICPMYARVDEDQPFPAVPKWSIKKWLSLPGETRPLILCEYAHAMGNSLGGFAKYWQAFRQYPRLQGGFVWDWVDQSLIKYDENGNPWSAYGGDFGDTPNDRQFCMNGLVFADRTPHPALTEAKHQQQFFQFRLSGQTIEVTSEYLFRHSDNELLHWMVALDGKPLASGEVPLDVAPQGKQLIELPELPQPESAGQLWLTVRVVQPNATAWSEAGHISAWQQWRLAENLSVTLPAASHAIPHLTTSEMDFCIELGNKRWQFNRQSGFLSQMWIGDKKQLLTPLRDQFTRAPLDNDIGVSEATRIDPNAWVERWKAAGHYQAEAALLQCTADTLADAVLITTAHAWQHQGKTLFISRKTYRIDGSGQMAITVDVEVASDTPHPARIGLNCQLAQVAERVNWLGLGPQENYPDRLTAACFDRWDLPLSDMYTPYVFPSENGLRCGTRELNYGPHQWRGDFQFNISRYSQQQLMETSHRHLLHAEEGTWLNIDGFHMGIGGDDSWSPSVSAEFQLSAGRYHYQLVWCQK

[3] = Vero cell cytotoxicity, cytotoxicity control for M. tuberculosis inhibitor project, purified and synthesized samples, set 3 (AID 504684); assay type: functional
[4] = target: Paired box protein Pax-8 (Homo sapiens, UniProt Q06710); assay: inhibitors of PAX8-driven TPO luciferase reporter, dose response, RMG-I cells, cherry-pick (AID 687027); assay type: functional, cell-based;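 also: luciferase reporter driven by Pax8 target thyroperoxidase promoter measured by SteadyGlo luminescence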
[5] = non-specific cell cytotoxicity, dose response, cytotoxicity control for PAX8 inhibitor project, plate reader, dry powder samples (AID 743021); assay type: functional, cell-based
[6] = target: T1, Trace amine-associated receptor 1 (Homo sapiens, UniProt Q96RJ0); assay: Fluorescence-based cell-based high throughput dose response assay to identify antagonists of the human trace amine associated receptor 1 (TAAR1).; assay type: functional
T1 sequence (Q96RJ0 whole entry): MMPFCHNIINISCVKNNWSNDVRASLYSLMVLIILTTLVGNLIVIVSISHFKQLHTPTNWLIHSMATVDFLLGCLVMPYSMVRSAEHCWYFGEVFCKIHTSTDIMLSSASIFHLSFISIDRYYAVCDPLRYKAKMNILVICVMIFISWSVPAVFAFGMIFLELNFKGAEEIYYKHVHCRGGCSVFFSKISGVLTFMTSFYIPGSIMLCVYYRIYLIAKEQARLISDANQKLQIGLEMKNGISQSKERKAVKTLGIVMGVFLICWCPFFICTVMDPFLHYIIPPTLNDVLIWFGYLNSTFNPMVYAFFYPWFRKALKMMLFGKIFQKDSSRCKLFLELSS

[7] = Counterscreen for antagonists of the human trace amine associated receptor 1 (hTAAR1): Fluorescence-based cell-based high throughput dose response assay to identify nonselective Ga16 antagonists.; assay type: functional
[8] = Counterscreen for […] of the human trace amine associated receptor 1 (TAAR1): Fluorescence-based cell-based high throughput dose response assay to identify nonselective Ga16 agonists.; assay type: functional
[9] = target: T1, Trace amine-associated receptor 1; assay: Counterscreen for antagonists of the human trace amine associated receptor 1 (hTAAR1): Fluorescence-based cell-based high throughput dose response assay to identify TAAR1 Agonists.; assay type: functional
[10] = target: Genome polyprotein (dengue virus type 2, UniProt P29990); assay: Dengue-2 NS5 methyltransferase inhibitors, primary screen, biochemical, confirmation dose response (AID 588689); assay type: functional
[11] = target: Nonstructural protein 1 (Influenza A virus, UniProt Q194T2); assay type: functional, Influenza A virus (A/California/07/2009(H1N1))
[12] = target: Tyrosyl-DNA phosphodiesterase 2 (Homo sapiens, UniProt O95551); assay: human TDP2 enzyme inhibitors, dose response, biochemical, epi absorbance, IC50 (AID 743297)
Sequence of Tyrosyl-DNA phosphodiesterase 2 (O95551 whole entry): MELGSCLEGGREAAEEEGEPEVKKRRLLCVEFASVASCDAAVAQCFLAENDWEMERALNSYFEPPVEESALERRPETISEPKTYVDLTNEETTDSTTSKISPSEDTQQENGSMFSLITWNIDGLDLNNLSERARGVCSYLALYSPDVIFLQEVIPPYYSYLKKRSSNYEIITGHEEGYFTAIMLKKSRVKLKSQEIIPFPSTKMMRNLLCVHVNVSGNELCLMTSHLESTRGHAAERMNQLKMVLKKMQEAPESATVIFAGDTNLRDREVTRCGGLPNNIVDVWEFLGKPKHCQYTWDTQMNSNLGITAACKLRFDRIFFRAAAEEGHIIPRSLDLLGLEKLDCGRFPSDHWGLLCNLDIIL

[13] = system: Vero; assay: Vero cell cytotoxicity, cytotoxicity control for flavivirus capping enzyme inhibitors (AID 588742); assay type: functional; conditions: Chlorocebus sabaeus
[14] = target: T2, Mitochondrial peptide methionine sulfoxide reductase (Bos taurus, UniProt P54149); assay: Absorbance-based biochemical high throughput dose response assay for activators of Methionine sulfoxide reductase A (MsrA).; assay type: functional
T2 sequence (P54149 whole entry): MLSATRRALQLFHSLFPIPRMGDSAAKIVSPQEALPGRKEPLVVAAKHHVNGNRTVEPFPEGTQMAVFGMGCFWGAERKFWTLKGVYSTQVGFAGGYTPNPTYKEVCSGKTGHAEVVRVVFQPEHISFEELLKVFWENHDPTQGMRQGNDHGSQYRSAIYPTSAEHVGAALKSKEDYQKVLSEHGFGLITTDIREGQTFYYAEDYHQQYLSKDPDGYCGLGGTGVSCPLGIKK

[15] = target: Glucose-6-phosphate 1-dehydrogenase (Homo sapiens, UniProt P11413); assay: human G6PD enzyme inhibitors, dose response, selectivity assay for P. falciparum G6PD inhibitor project, biochemical, fluorescence (AID 504792); assay type: functional
Sequence of Glucose-6-phosphate 1-dehydrogenase (P11413 whole entry): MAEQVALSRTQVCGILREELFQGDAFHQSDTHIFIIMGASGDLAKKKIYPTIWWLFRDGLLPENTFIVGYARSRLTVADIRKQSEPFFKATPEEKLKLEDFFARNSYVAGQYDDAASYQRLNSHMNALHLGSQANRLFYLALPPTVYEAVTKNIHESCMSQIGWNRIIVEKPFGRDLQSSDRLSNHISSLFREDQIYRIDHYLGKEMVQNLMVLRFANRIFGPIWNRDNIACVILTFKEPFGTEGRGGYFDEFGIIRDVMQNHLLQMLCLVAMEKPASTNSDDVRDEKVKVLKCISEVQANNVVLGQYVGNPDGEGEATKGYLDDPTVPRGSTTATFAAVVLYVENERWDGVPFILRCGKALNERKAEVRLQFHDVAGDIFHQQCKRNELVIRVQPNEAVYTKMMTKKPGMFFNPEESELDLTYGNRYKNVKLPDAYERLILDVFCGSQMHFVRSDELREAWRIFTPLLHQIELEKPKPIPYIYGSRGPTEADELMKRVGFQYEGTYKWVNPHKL

[16] = target: T3, Caspase-6 (Homo sapiens, UniProt P55212); assay: human caspase-6 inhibitors, dose response, biochemical, VEID-R110 fluorescence, cherry-pick (AID 720632)
T3 sequence (P55212 whole entry): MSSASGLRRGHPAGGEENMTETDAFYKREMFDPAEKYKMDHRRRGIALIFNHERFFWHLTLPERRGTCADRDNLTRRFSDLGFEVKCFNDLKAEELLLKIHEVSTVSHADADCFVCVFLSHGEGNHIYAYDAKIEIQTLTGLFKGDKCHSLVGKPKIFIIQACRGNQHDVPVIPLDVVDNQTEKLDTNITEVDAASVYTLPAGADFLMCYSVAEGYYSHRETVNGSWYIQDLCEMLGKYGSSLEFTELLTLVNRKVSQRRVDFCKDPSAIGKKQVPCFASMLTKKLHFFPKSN

[17] = target: T4, Rac GTPase-activating protein 1 (Homo sapiens, UniProt Q9H0H5); assay: MgcRacGAP GTPase-activating activity inhibitors, confirmation, biochemical, ADP Hunter fluorescence, primary and confirmatory (AID 624330); assay type: functional
T4 sequence (Q9H0H5 whole entry): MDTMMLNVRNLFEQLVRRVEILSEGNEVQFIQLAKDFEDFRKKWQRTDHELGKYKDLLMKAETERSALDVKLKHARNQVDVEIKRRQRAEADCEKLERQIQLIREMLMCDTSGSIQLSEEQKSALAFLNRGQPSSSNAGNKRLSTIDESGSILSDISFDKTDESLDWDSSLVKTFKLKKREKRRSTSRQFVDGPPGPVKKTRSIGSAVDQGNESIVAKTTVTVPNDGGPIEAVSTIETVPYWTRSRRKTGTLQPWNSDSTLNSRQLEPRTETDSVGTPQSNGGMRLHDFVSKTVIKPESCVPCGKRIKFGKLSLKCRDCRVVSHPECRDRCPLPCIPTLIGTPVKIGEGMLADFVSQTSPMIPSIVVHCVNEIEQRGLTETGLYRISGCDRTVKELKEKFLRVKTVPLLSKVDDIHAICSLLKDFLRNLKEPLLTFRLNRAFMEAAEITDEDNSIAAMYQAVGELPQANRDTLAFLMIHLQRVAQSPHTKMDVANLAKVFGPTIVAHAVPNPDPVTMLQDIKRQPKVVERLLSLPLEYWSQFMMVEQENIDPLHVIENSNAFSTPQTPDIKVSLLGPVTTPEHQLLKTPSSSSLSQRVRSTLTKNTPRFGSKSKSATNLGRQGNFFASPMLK

[18] = human group III sPLA2 inhibitors, dose response, biochemical, QFRET, IC50 (AID 743457);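 also: green fluorescence rise as the enzyme cleaves BODIPY PC-A2 in liposomes; potency for inhibition of the enzyme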
[19] = inhibitors of clade B AD8 Env fusion, dose response, cell-based, cherry-pick (AID 652062); assay type: functional;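 also: luciferase signal from cell-cell fusion driven by HIV-1 clade B AD8 Env; potency is for inhibitors of fusion seen as a drop in luminescence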
[20] = off-target signal loss in HeLa-CEM21 co-culture – HeLa F-luc CTL cells, cherry-picked, counter-screen for HIV-1 Env fusion inhibitor project, dose response (AID 652040); assay type: functional, cell-based;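 also: potency for signal decrease marking cytotoxic or nonspecific inhibition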
[21] = CEM21 lymphoblast cell cytotoxicity, dose response, cytotoxicity control for viral fusion inhibitor project, CellTiter-Glo luminescence, cherry-picked (AID 652042); assay type: functional, cell-based;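 also: potency for signal decrease meaning cytotoxicity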
[22] = inhibitors of HIV Env-driven cell fusion, dose response, cherry-pick (AID 652057); assay type: functional, cell-based
[23] = ZM109 Env clade C HIV-1 fusion inhibitors, dose response, HeLa effector, CEM target cells, luciferase, cherry-pick (AID 652058); assay type: functional, cell-based
[24] = target: Albumin (Bos taurus, UniProt P02769); assay: Counterscreen for inhibitors of T-cell receptor (TCR)-CD3 interaction: Fluorescence-based biochemical high throughput dose response assay to identify inhibitors of T-cell receptor (TCR)-CD3 interaction using a TAMRA-labeled BSA probe.; assay type: functional
Sequence of Albumin (P02769 whole entry): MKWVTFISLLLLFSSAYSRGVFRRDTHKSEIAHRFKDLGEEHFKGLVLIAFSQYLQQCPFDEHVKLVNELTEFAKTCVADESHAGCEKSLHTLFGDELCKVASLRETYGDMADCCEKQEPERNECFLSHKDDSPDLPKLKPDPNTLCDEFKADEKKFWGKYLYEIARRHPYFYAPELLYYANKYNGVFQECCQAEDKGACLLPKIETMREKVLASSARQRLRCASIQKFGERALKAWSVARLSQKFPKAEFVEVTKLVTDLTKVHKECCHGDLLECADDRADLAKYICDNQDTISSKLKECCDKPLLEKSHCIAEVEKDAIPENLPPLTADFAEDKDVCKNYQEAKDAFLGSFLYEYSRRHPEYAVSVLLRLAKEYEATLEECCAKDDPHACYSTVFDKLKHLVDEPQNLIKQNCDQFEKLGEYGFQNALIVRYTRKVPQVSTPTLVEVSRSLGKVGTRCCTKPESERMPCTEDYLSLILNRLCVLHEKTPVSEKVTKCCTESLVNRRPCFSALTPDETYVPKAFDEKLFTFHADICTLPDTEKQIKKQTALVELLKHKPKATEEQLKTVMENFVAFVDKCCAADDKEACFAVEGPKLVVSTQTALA

[25] = Counterscreen for activators of the function of SWI/SNF related, matrix associated, actin dependent regulator of chromatin, subfamily a, member 2 (SMARCA2, BRM): Luminescence-based cell-based high throughput dose response assay to identify non-selective compounds using the VP16 reporter assay.; assay type: functional
[26] = target: SWI/SNF-related matrix-associated actin-dependent regulator of chromatin subfamily A member 2 (Homo sapiens, UniProt P51531); assay: Luminescence-based cell-based high throughput dose response assay to identify activators of the function of SWI/SNF related, matrix associated, actin dependent regulator of chromatin, subfamily a, member 2 (SMARCA2, BRM).; assay type: functional
Sequence of SWI/SNF-related matrix-associated actin-dependent regulator of chromatin subfamily A member 2 (P51531 whole entry): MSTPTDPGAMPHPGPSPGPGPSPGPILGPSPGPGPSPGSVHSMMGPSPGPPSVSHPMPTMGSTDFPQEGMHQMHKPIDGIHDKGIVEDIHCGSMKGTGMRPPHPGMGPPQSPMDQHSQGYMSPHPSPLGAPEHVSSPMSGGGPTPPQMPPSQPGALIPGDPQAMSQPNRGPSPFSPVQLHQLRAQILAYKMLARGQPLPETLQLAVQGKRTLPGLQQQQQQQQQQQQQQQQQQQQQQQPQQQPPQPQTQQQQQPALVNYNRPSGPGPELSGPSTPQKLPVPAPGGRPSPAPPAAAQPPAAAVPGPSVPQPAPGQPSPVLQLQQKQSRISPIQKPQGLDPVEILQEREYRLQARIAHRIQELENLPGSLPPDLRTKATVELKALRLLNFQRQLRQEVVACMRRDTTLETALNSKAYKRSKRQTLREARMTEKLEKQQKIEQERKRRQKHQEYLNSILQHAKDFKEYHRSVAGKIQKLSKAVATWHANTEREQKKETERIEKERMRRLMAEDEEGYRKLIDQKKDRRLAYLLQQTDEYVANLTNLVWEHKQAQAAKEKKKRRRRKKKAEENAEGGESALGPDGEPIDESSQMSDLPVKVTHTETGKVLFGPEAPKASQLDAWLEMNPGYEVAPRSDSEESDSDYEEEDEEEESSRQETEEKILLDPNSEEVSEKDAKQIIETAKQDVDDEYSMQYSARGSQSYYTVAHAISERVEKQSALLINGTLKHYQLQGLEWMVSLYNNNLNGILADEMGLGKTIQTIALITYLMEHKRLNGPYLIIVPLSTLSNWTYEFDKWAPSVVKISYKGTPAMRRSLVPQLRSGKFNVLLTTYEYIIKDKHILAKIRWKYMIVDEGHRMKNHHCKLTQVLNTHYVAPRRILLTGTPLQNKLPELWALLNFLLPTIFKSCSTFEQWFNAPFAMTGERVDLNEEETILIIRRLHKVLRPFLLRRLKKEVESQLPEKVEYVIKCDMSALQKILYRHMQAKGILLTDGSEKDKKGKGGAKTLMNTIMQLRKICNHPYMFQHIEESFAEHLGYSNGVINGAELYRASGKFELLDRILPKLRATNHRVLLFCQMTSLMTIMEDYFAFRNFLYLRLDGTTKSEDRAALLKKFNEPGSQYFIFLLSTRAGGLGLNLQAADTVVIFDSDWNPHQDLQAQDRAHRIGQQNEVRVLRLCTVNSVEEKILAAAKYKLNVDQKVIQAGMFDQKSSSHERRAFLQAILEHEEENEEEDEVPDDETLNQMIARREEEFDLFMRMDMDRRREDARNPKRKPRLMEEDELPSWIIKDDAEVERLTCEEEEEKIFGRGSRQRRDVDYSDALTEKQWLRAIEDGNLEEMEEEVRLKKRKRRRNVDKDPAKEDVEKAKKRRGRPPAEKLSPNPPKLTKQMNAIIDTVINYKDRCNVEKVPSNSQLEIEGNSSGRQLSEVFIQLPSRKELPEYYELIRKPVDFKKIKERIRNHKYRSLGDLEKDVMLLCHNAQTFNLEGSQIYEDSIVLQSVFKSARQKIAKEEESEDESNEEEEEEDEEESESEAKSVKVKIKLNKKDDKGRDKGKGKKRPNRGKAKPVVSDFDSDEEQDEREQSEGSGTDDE

[27] = target: T5, Hexokinase (Trypanosoma brucei, UniProt Q38C41); assay: Confirmation assay for inhibitors of Trypanosoma brucei hexokinase 1-Analogue-first series. [Related pubchem assays (depositor defined):AID1430, AID1632, AID2516, AID2560, AID2579, AID2600, AID449725, AID492951]; assay type: functional
T5 sequence (Q38C41 whole entry): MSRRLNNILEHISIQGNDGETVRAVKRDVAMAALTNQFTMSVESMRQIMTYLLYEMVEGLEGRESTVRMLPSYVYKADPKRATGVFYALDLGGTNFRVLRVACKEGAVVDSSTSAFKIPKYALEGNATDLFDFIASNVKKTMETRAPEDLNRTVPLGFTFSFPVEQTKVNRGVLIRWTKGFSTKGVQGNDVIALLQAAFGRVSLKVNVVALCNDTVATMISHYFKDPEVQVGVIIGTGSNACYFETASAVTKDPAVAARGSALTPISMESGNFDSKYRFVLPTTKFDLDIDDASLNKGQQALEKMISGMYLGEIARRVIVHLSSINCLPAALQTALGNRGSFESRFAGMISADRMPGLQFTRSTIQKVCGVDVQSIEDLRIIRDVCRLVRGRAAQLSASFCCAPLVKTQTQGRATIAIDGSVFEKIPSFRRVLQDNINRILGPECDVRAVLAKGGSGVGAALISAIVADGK

[28] = ADAM10 protease inhibitors, dose response, selectivity assay for ADAM17 exosite inhibitor project, biochemical, FRET peptide substrate, recombinant human ADAM10 (AID 743259);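 also: ADAM10 enzyme cleaving a FRET peptide substrate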
[29] = target: Disintegrin and metalloproteinase domain-containing protein 17 (Homo sapiens, UniProt P78536); assay: exosite inhibitors of ADAM17, dose response, biochemical (AID 743260)
Sequence of Disintegrin and metalloproteinase domain-containing protein 17 (P78536 whole entry, the tested form may be a part): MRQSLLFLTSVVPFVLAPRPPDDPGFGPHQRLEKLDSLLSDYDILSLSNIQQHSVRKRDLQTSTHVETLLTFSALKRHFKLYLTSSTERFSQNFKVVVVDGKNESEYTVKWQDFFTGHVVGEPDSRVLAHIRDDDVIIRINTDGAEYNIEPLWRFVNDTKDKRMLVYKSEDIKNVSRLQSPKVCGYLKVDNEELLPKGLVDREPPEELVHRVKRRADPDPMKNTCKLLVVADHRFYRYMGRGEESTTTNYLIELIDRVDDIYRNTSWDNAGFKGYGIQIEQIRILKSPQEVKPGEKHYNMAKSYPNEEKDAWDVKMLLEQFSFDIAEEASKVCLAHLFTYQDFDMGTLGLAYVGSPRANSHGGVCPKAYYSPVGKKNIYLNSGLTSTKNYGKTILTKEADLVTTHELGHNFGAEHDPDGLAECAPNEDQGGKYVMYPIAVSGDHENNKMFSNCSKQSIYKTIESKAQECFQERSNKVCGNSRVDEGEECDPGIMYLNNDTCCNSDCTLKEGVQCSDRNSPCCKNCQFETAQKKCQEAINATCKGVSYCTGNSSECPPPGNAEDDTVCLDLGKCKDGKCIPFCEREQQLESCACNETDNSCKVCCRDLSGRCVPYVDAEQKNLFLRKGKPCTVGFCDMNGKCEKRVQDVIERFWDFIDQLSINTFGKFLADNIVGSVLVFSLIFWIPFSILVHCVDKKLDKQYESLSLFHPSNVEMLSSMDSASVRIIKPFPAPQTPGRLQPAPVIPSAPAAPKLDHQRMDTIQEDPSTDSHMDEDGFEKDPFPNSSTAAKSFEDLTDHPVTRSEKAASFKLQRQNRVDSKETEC

[30] = HEK293T cytotoxicity, dose response, cytotoxicity control for miR-122 modulator project, cell-based, inhibitor set, cherry-pick, set 2 (AID 720697); assay type: functional
[31] = HEK293T cytotoxicity, dose response, cytotoxicity control for miR-122 modulator project, cell-based, activator set, cherry-pick (AID 720690); assay type: functional;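 also: HEK293T human cells scored for general mammalian cytotoxicity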
[32] = target: T6, Interleukin-8 (Homo sapiens, UniProt P10145); assay: Dose Response confirmation of uHTS small molecule hits for cystic fibrosis induced NFkb Inhibitors in a TNFa-induced IL8 counterscreen.; assay type: functional; conditions: read-out: IC50_Mean
T6 sequence (P10145 whole entry): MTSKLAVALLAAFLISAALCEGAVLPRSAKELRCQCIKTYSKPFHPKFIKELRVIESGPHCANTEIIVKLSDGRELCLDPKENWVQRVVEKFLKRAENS

[33] = target: T6, Interleukin-8; assay: Dose Response confirmation of uHTS small molecule hits for cystic fibrosis induced NFkb Inhibitors in a PAF-induced IL8 counterscreen.; assay type: functional; conditions: read-out: IC50_Mean

O=C(/C=C/c1ccccc1)N1CCN(CCN2C(=O)c3cccc4cccc(c34)C2=O)CC1
CC50 [1]: 60.2 µM (active) | IC50 [2]: > 80 µM (inactive) | CC50 [3]: > 100 µM (active)

Brc1ccc2nc(-c3ccc(CN4CCC(c5nc6ccccc6[nH]5)CC4)cc3)c(-c3ccccc3)nc2c1
AC50 [4]: 9.03 µM (active) | AC50 [5]: 37.8 µM (active)

Cc1cccc(C(C#N)c2nc3ccccc3nc2C(F)(F)F)c1 (centres undefined)
IC50 [6]: 1.58 µM (active) | IC50 [7]: > 29.9 µM (inactive) | EC50 [8]: > 29.9 µM (inactive) | EC50 [9]: > 29.9 µM (inactive)

C[n+]1c(-c2ccccc2)cc2c(=Cc3ccc([N+](=O)[O-])cc3)c3ccccc3n21
IC50 [10]: 14.2 µM (active) | IC50 [11]: 9.36 µM (active) | IC50 [12]: > 128 µM (inactive) | CC50 [13]: 34.8 µM (active) | EC50 [14]: > 104 µM (inactive) | IC50 [15]: > 80 µM (inactive) | AC50 [16]: 0.309 µM (active) | IC50 [17]: 31.5 µM (active)

COc1ccc2oc(C(=O)OCC(=O)NCc3ccccc3OC)c(C)c2c1
IC50 [6]: 6.65 µM (active) | IC50 [7]: > 29.9 µM (inactive) | EC50 [8]: > 29.9 µM (inactive) | EC50 [9]: 7.16 µM (active)

O=C(NNC(=S)Nc1ccccc1Cl)c1ccccc1Cl
IC50 [18]: > 122 µM (inactive)

OCCCn1c(CCNc2nc(-c3ccc(F)cc3)cs2)nc2cc(C(F)(F)F)ccc21
AC50 [19]: 16 µM (active) | AC50 [20]: 43.1 µM (active) | AC50 [21]: 51.5 µM (active) | AC50 [22]: 8.76 µM (active) | AC50 [23]: 5.8 µM (active)

NC(=O)CCC1NC(=S)N(Cc2ccccc2)C1=O (centres undefined)
IC50 [24]: > 94.1 µM (inactive)

Cn1sc2ccccc2c1=O
EC50 [25]: > 91.2 µM (inactive) | IC50 [15]: 37.3 µM (inactive) | EC50 [26]: > 91.2 µM (inactive) | IC50 [27]: > 25 µM (inactive)

Cc1ccc(OCCOCCOc2ccc(Br)cc2/C=N\NC(=O)c2ccncc2)cc1
IC50 [28]: > 69.5 µM (inactive) | IC50 [29]: > 69.5 µM (inactive)

CN1C(=O)c2cc(NC(=O)c3ccc(C(F)(F)F)cc3)ccc2OC[C@H]2O[C@H](CC(=O)NC3Cc4ccccc4C3)CC[C@@H]21
AC50 [30]: 0.324 µM (active) | AC50 [31]: 0.335 µM (active)

COc1ccc(OC)c(-c2csc(NC(=O)COC(=O)C3(C)CC3(Cl)Cl)n2)c1 (centres undefined)
IC50 [28]: 13.1 µM (inactive) | IC50 [29]: > 69.5 µM (inactive)

CCOC(=O)C1=C(Nc2ccc(Cl)cc2)S/C(=C\c2ccccn2)C1=O
IC50 [2]: > 80 µM (inactive)

C=C1C(=O)[C@]23C[C@H]1CCC2[C@@]1(C)C(C[C@@H]3O)[C@](C)(C(=O)O)CC[C@@H]1O (some centres undefined)
EC50 [25]: > 91.3 µM (inactive) | IC50 [32]: 39.7 µM (inactive) | IC50 [33]: 0.817 µM (active) | EC50 [26]: > 10.1 µM (inactive)

O=C(NN=Cc1sc(=O)[nH]c1-[n+]1ccc2ccccc2c1)c1ccccc1[O-]
IC50 [24]: > 94.1 µM (inactive)
